Four compounds from publication PMC6429263, “Evolution and Antibacterial Evaluation of 8-Hydroxy-cycloberberine Derivatives as a Novel Family of Antibacterial Agents Against MRSA” (Molecules, 2019) can be followed below.

In one experiment the test system is MSSE 16-5. Kind of experiment: MIC, agar dilution, MSSE 16-5 (clinical isolate). The format is cell-based, S. epidermidis. Conditions: Staphylococcus epidermidis; MSSE 16-5, isolated from patients in China; read-out: MIC.
A further experiment has as its system VISA ATCC 700699. The experiment can be described thus: MIC, agar dilution, VISA ATCC 700699. In kind it is cell-based. Particulars: Staphylococcus aureus; VISA ATCC 700699; read-out: MIC.
The next experiment deals with MRSE 13-3. The experiment can be described thus: MIC, agar dilution, MRSE 13-3. In kind it is cell-based, S. epidermidis. Conditions: Staphylococcus epidermidis; MRSE 13-3; read-out: MIC.
Another experiment concerns MSSE ATCC 12228. Kind of experiment: MIC, agar dilution, MSSE ATCC 12228. The format is cell-based, S. epidermidis. Particulars: Staphylococcus epidermidis, ATCC12228; MSSE ATCC 12228; read-out: MIC.
The subject of a further experiment is MSSA ATCC 29213. The experiment can be described thus: MIC, agar dilution, MSSA ATCC 29213. The format is cell-based, S. aureus. Particulars: Staphylococcus aureus; MSSA ATCC 29213; read-out: MIC.
For the next experiment, the system named is MRSA ATCC -BAA-976. The experiment can be described thus: MIC, agar dilution, MRSA ATCC-BAA-976 (clindamycin-resistant). In kind it is cell-based. Particulars: Staphylococcus aureus; MRSA ATCC-BAA-976, clindamycin-resistant S. aureus; read-out: MIC.
In the next experiment the test system is MSSA 16-1. Kind of experiment: MIC, agar dilution, MSSA 16-1 (clinical isolate). Conditions: Staphylococcus aureus; MSSA 16-1, isolated from patients in China; read-out: MIC. The format is cell-based, S. aureus.
In another experiment the test system is S.s ATCC 15305. Kind of experiment: MIC, agar dilution, S.s ATCC 15305. In kind it is cell-based. Particulars: Staphylococcus saprophyticus, ATCC15305; S. saprophyticus ATCC 15305; read-out: MIC.
The next experiment relates to MRSA ATCC-B AA-1708. The experiment can be described thus: MIC, agar dilution, MRSA ATCC-BAA-1708 (mupA positive). In kind it is cell-based. Conditions: Staphylococcus aureus; MRSA ATCC-BAA-1708, mupA positive (mupirocin resistance); read-out: MIC.
Another experiment concerns MRSA ATCC 43300. The experiment can be described thus: MIC, agar dilution, MRSA ATCC 43300. In kind it is cell-based. Particulars: Staphylococcus aureus; MRSA ATCC 43300; read-out: MIC.
In a further experiment the test system is MRSA 16-34. The experiment can be described thus: MIC, agar dilution, MRSA 16-34. The format is cell-based. Particulars: Staphylococcus aureus; MRSA 16-34; read-out: MIC.
The subject of the next experiment is S.h ATCC 35982. Kind of experiment: MIC, agar dilution, S.h ATCC 35982. Conditions: Staphylococcus hominis, ATCC35982; S. hominis ATCC 35982; read-out: MIC. The format is cell-based.
A further experiment concerns VISA ATCC 700698. Kind of experiment: MIC, agar dilution, VISA ATCC 700698. Particulars: Staphylococcus aureus; VISA ATCC 700698; read-out: MIC. The format is cell-based.
The subject of another experiment is MRSA 13-18. Kind of experiment: MIC, agar dilution, MRSA 13-18. In kind it is cell-based. Conditions: Staphylococcus aureus; MRSA 13-18; read-out: MIC.
In a further experiment the test system is MRSE 16-5. The experiment can be described thus: MIC, agar dilution, MRSE 16-5. In kind it is cell-based, S. epidermidis. Conditions: Staphylococcus epidermidis; MRSE 16-5; read-out: MIC.
A further experiment concerns MSSA 15. The experiment can be described thus: MIC, agar dilution, MSSA 15 (clinical isolate). In kind it is cell-based, S. aureus. Particulars: Staphylococcus aureus; MSSA 15, isolated from patients in China; read-out: MIC.
The subject of the next experiment is MRSA 13-23. Kind of experiment: MIC, agar dilution, MRSA 13-23. In kind it is cell-based. Conditions: Staphylococcus aureus; MRSA 13-23; read-out: MIC.

In the case of `COc1ccc2c(c[n+]3ccc4cc5c(c6c(Cc7ccc(F)cc7F)cc2c3c46)OCO5)c1O` [13c, 1,2-Methylenedioxy-8-hydroxy-9-methoxy-13-2′,4′-difluorobenzylcycloberberine chloride], the MIC in the experiment on MSSE 16-5, in the experiment on VISA ATCC 700699, in the experiment on MRSE 13-3, in the experiment with MSSE ATCC 12228, in the experiment with MSSA ATCC 29213 and with MRSA ATCC -BAA-976 was 8 µg/mL in each case. Besides, the MIC in the experiment with MSSA 16-1 turned out to be 8 µg/mL; with S.s ATCC 15305 it was 16 µg/mL; in the experiment with MRSA ATCC-B AA-1708, 4 µg/mL; in the experiment on MRSA ATCC 43300 it was 8 µg/mL; with MRSA 16-34, 8 µg/mL; in the experiment on S.h ATCC 35982 it was 8 µg/mL. Also, the MIC with VISA ATCC 700698 was determined as 8 µg/mL; in the experiment on MRSA 13-18 it was 16 µg/mL; in the experiment with MRSE 16-5, 8 µg/mL; in the experiment on MSSA 15, 8 µg/mL; in the experiment with MRSA 13-23 it was 8 µg/mL.

With `COc1ccc2c(c[n+]3ccc4cc5c(c6c(Cc7c(F)cccc7F)cc2c3c46)OCO5)c1O` [13d, 1,2-Methylenedioxy-8-hydroxy-9-methoxy-13-2′,6′-difluorobenzylcycloberberine chloride], the MIC in the experiment on MSSE 16-5, with VISA ATCC 700699, with MRSE 13-3, in the experiment on MSSE ATCC 12228, in the experiment with MSSA ATCC 29213 and with MRSA ATCC -BAA-976 was more than 64 µg/mL throughout. In addition, the MIC in the experiment with MSSA 16-1, with S.s ATCC 15305, in the experiment on MRSA ATCC-B AA-1708, in the experiment on MRSA ATCC 43300, with MRSA 16-34 and in the experiment with S.h ATCC 35982 was more than 64 µg/mL each time. For the same compound, the MIC with VISA ATCC 700698 was more than 64 µg/mL; in the experiment with MRSA 13-18, more than 64 µg/mL; in the experiment on MRSE 16-5 it was 32 µg/mL; in the experiment on MSSA 15, more than 64 µg/mL; in the experiment on MRSA 13-23, more than 64 µg/mL.

Consider `COc1ccc2c(c[n+]3ccc4cc5c(c6c(Cc7ccccc7C)cc2c3c46)OCO5)c1O` [13g, 1,2-Methylenedioxy-8-hydroxy-9-methoxy-13-o-methylbenzylcycloberberine chloride], for which the MIC in the experiment on MSSE 16-5 was more than 64 µg/mL; in the experiment with VISA ATCC 700699, more than 64 µg/mL; in the experiment with MRSE 13-3, 64 µg/mL; with MSSE ATCC 12228, more than 64 µg/mL; in the experiment on MSSA ATCC 29213 it was more than 64 µg/mL; in the experiment with MRSA ATCC -BAA-976 it was more than 64 µg/mL. The MIC with MSSA 16-1, in the experiment with S.s ATCC 15305, in the experiment with MRSA ATCC-B AA-1708, in the experiment with MRSA ATCC 43300, with MRSA 16-34 and in the experiment on S.h ATCC 35982 was more than 64 µg/mL each time. Moreover, the MIC in the experiment on VISA ATCC 700698 is more than 64 µg/mL; in the experiment on MRSA 13-18 it was more than 64 µg/mL; with MRSE 16-5, 64 µg/mL; in the experiment on MSSA 15 it was more than 64 µg/mL; in the experiment with MRSA 13-23, more than 64 µg/mL.

As to `COc1ccc2c(c[n+]3ccc4cc5c(c6c(Cc7cc(C)cc(C)c7)cc2c3c46)OCO5)c1O` [13j, 1,2-Methylenedioxy-8-hydroxy-9-methoxy-13-3′,5′-dimethylbenzylcycloberberine chloride], the MIC in the experiment with MSSE 16-5 came out at 16 µg/mL; in the experiment on VISA ATCC 700699, 32 µg/mL; in the experiment with MRSE 13-3 it was 16 µg/mL; with MSSE ATCC 12228 it was 32 µg/mL; in the experiment with MSSA ATCC 29213, 32 µg/mL; with MRSA ATCC -BAA-976, 32 µg/mL. Also, the MIC in the experiment with MSSA 16-1 stood at 32 µg/mL; in the experiment with S.s ATCC 15305, 64 µg/mL; in the experiment on MRSA ATCC-B AA-1708, 16 µg/mL; with MRSA ATCC 43300 it was 32 µg/mL; in the experiment with MRSA 16-34, 16 µg/mL; with S.h ATCC 35982, 32 µg/mL. The MIC in the experiment with VISA ATCC 700698 was determined as 32 µg/mL; in the experiment on MRSA 13-18, 32 µg/mL; in the experiment with MRSE 16-5, 16 µg/mL; in the experiment on MSSA 15, 32 µg/mL; with MRSA 13-23, 32 µg/mL.
